Measurements as given in article PMC6656724 (Communications Biology, 2019).
Where two headings read alike, the source gives them in different places.

Assays:
[1] = Stability in mouse hepatic microsomes; conditions: for half-life at 1 µM: mouse, pooled liver microsomes
Procedure: 3.6.3 Compound stability in mouse hepatic microsomes and rat hepatocytes
A microsomal stability assay was performed as described in the BioFocus Standard
Operating Procedure ADME-SOP-83, using pooled hepatic mouse
Test and control compounds (midazolam,
dextromethorphan), were prepared in DMSO and incubated at an initial concentration
in the presence of the cofactor, NADPH (1 mM). Aliquots were removed at 0, 5, 10,
20 and 40 minutes for termination of reactions and compound extraction with ACN
containing an analytical internal standard. Samples were centrifuged and the
supernatant fractions analysed for parent compound by mass spectrometry (LC-
MS/MS). The amount of compound remaining (expressed as %) was determined from
the MS response in each sample relative to that in the T = 0 samples (normalised for
internal standard). Ln plots of the % remaining were used to determine the half-life
the slope of the Ln % remaining vs time curve. The in vitro intrinsic clearance Clint

in vitro = in vitro ADME, canine; conditions: dog; for Papp A→B at 1 h, 10 µM / Papp B→A at 1 h, 10 µM / recovery at 1 h, 10 µM: MDCK; for efflux ratio at 1 h, 10 µM: pH 7.4, wild type MDCK, Papp B>A / Papp A>B
Procedure: (§1) internal standard at each timepoint. […]
(§2) including an analytical internal standard.
(§3) Apparent permeability (Papp) values were determined from the relationship: […]
(§4) Where V is the volume of each Transwell compartment (apical 125 µL, basolateral 600 µL), and concentrations are the relative MS responses for compound (normalized to internal standard) in the donor chamber before incubation and acceptor chamber at the end of the incubation. Area = area of cells exposed for drug transfer (0.33 cm 2).
(§5) Efflux ratios (Papp B>A / Papp A>B) were calculated for each compound from the […]
(§6) MDR1-MDCK cell line has been engineered to overexpress the efflux transporter, MDR1 (P-glycoprotein), and a finding of good permeability B>A, but poor […]
(§7) order to confirm the involvement of MDR1 in any efflux seen, an “ef fective efflux ratio” (EER) was calculated by comparing compound efflux ratios (ER) in the two cell types, i.e. EER = ER (MDR1-MDCK)/ ER (wild-type MDCK). This ratio illustrates the effect of the over-expressed MDR1 normalised for the background movement of compound through the wild-type cells.
(§8) Lucifer Yellow (LY) was added to the apical buffer in all wells to assess viability of the cell layer. As LY cannot freely permeate lipophilic barriers, a high degree of LY […]
(§9) validity of other wells on the plate.
(§10) Compound recovery from the wells was determined from MS responses (normalized to internal standard) in donor and acceptor chambers at the end of incubation compared to response in the donor chamber pre-incubation.

MDR1 (P-glycoprotein) = experiment: in vitro; format: in vitro ADME, canine; conditions: dog; for efflux ratio at 1 h, 10 µM: pH 7.4, MDR1 MDCK, Papp B>A / Papp A>B
Procedure: as §1, §2, §3, §4, §5, §6, §7, §8, §9, §10

[2] = Mouse brain penetration study; format: in vivo, female C57BL6 mice; conditions: mouse, 1 mg/kg i.v.; for In brain / In blood: single mice, analyte inhibitor 1 (also after prodrugs) or 1h
Procedure: Inhibitor 1 (and prodrugs 1a, 1b, 1c and 1d) was dosed as a bolus solution intravenously at 1 mg free base/kg (dose volume: 5 mL/kg; dose vehicle: 5% DMSO; 95% saline (inhibitor 1) or 5% DMSO; 40% PEG400; 55% MilliQ H2O (prodrugs 1a, 1b, 1c and 1d)) to female C57BL6 mice (n = 6). At 5 min and 60 min following intravenous bolus injection of test compound, mice (n = 3/timepoint) were placed under terminal anaesthesia with isofluorane. A blood sample was taken by cardiac puncture, the […] decapitated and the brain removed. Brain weight was noted and each brain homogenised with two volumes of methanol (2 mL/g brain). Each blood sample was diluted with distilled water (1:10). Diluted blood and the brain homogenates were then stored frozen until preparation and analysis by UPLC-MS/MS. For each mouse at each timepoint for 1, the concentration in brain (ng/g) was divided by the concentration in blood (ng/mL) to give a brain:blood ratio. The mean value obtained was quoted. For prodrugs 1a to 1d, only the concentration of 1 in blood (ng/mL) and brain (ng/g) was reported.
A rapid and sensitive ultra-performance chromatography/tandem mass spectrometry (UPLC-MS/MS) method was developed and validated for the determination of inhibitor 1 and prodrug 1b (rat only). Chromatographic analysis was conducted on a Waters Acquity™ UPLC system. Chromatographic separation was performed with an Acquity™ UPLC BEH C18 column (50 × 2.1 mm, 1.7 µm, 130Å; Waters Corp.) maintained at 40 °C in a column oven. The mobile phase consisted of water with 0.01% formic acid and ACN with 0.01 % formic acid and it was delivered at a flow rate of 0.6 mL/min under gradient eluent conditions within an analysis cycle time of 3 min. The mass detection was conducted on a Waters Xevo™ TQs mass spectrometer equipped with a ScanWave™ technology. Quantitation of the analyte was performed in electrospray positive ionisation mode (ESI^+) using multiple reaction monitoring. The optimised fragmentation transition was m/z = 270.17 → 196.19 (mouse) or m/z = 270.17 → 223.76 (rat) for inhibitor 1 and m/z = 297.83 → 195.74 for prodrug 1b (rat).
Sample extraction for blood and brain homogenate was by protein precipitation (1:3 or 1:6) using ACN containing suitable internal standard. Extracts were vortexed followed by centrifugation (2800 rpm for 10 min). An aliquot of each supernatant was then diluted two-fold in distilled water ready for analysis by UPLC-MS/MS.
The weighted 1/x^2 calibration line was linear in the dynamic range of 1–5000 ng/mL for inhibitor 1 and 1–1000 ng/mL for prodrug 1b with a correlation coefficient (r^2) > 0.99 (inhibitor 1) or 0.98 (prodrug 1b). The quality control samples (QC) were prepared by using the same spiking scheme as the calibration samples and up to four different target concentration brain levels: 2 ng/mL (LQC), 40 ng/mL (MQC), 100 ng/mL (HQC) and 2000 ng/mL. Data collection, peak integration and calculations were performed using MassLynx software, version 2.1.

[3] = Half-life Mean, mouse hepatic microsomes
[4] = Half-life n=1, mouse hepatic microsomes
[5] = Half-life n=2, mouse hepatic microsomes
[6] = pH 7.4, Papp A>B n=1, wild type MDCK
[7] = pH 7.4, Papp A>B n=2, wild type MDCK
[8] = pH 7.4, Papp B>A n=1, wild type MDCK
[9] = pH 7.4, Papp B>A n=2, wild type MDCK
[10] = pH 7.4, wild type MDCK, read-out: Papp A>B Mean
[11] = pH 7.4, wild type MDCK, read-out: Papp B>A Mean
[12] = pH 7.4, wild type MDCK, read-out: Recovery A>B Mean
[13] = pH 7.4, wild type MDCK, read-out: Recovery A>B n=1
[14] = pH 7.4, wild type MDCK, read-out: Recovery A>B n=2
[15] = pH 7.4, wild type MDCK, read-out: Recovery B>A Mean
[16] = pH 7.4, wild type MDCK, read-out: Recovery B>A n=1
[17] = pH 7.4, wild type MDCK, read-out: Recovery B>A n=2
[18] = MDCK-MDR1, pH 7.4, MDR1 MDCK, read-out: Papp A>B Mean
[19] = MDCK-MDR1, pH 7.4, MDR1 MDCK, read-out: Papp B>A Mean
[20] = MDCK-MDR1, pH 7.4, MDR1 MDCK, read-out: Recovery A>B Mean
[21] = MDCK-MDR1, pH 7.4, MDR1 MDCK, read-out: Recovery A>B n=1
[22] = MDCK-MDR1, pH 7.4, MDR1 MDCK, read-out: Recovery A>B n=2
[23] = MDCK-MDR1, pH 7.4, MDR1 MDCK, read-out: Recovery B>A Mean
[24] = MDCK-MDR1, pH 7.4, MDR1 MDCK, read-out: Recovery B>A n=1
[25] = MDCK-MDR1, pH 7.4, MDR1 MDCK, read-out: Recovery B>A n=2
[26] = MDCK-MDR1, pH 7.4, Papp A>B n=1, MDR1 MDCK
[27] = MDCK-MDR1, pH 7.4, Papp A>B n=2, MDR1 MDCK
[28] = MDCK-MDR1, pH 7.4, Papp B>A n=1, MDR1 MDCK
[29] = MDCK-MDR1, pH 7.4, Papp B>A n=2, MDR1 MDCK

Structure (SMILES)	Mean intrinsic clearance ([1]; mouse hepatic microsomes)	half-life at 1 µM [1, 3]	half-life at 1 µM [1, 4]	half-life at 1 µM [1, 5]	Papp A→B at 1 h, 10 µM (in vitro; [6])	Papp A→B at 1 h, 10 µM (in vitro; [7])	Papp B→A at 1 h, 10 µM (in vitro; [8])	Papp B→A at 1 h, 10 µM (in vitro; [9])	Papp A→B at 1 h, 10 µM (in vitro; [10])	Papp B→A at 1 h, 10 µM (in vitro; [11])	recovery at 1 h, 10 µM (in vitro; [12])	recovery at 1 h, 10 µM (in vitro; [13])	recovery at 1 h, 10 µM (in vitro; [14])	recovery at 1 h, 10 µM (in vitro; [15])	recovery at 1 h, 10 µM (in vitro; [16])	recovery at 1 h, 10 µM (in vitro; [17])	efflux ratio at 1 h, 10 µM (in vitro)	Papp A→B at 1 h, 10 µM (MDR1 (P-glycoprotein); [18])	Papp B→A at 1 h, 10 µM (MDR1 (P-glycoprotein); [19])	recovery at 1 h, 10 µM (MDR1 (P-glycoprotein); [20])	also measured
CC(CSc1ccc(Cl)cc1)C(=O)O (stereo not drawn) [compound 6, 3-[(4-chlorophenyl)thio]-2-methylpropanoic acid]	< 28 µL/min/mg microsome protein	> 1.67 h	> 1.67 h	> 1.67 h	33 ×10⁻⁶ cm/s	41 ×10⁻⁶ cm/s	51 ×10⁻⁶ cm/s	50 ×10⁻⁶ cm/s	37 ×10⁻⁶ cm/s	50.5 ×10⁻⁶ cm/s	66%	57%	75%	93.5%	98%	89%	1.36	50.5 ×10⁻⁶ cm/s	41.5 ×10⁻⁶ cm/s	82%	recovery at 1 h, 10 µM (MDR1 (P-glycoprotein); [21]): 68%; recovery at 1 h, 10 µM (MDR1 (P-glycoprotein); [22]): 96%; recovery at 1 h, 10 µM (MDR1 (P-glycoprotein); [23]): 80%; recovery at 1 h, 10 µM (MDR1 (P-glycoprotein); [24]): 93%; recovery at 1 h, 10 µM (MDR1 (P-glycoprotein); [25]): 67%; Papp A→B at 1 h, 10 µM (MDR1 (P-glycoprotein); [26]): 40 ×10⁻⁶ cm/s; Papp A→B at 1 h, 10 µM (MDR1 (P-glycoprotein); [27]): 61 ×10⁻⁶ cm/s; Papp B→A at 1 h, 10 µM (MDR1 (P-glycoprotein); [28]): 51 ×10⁻⁶ cm/s; Papp B→A at 1 h, 10 µM (MDR1 (P-glycoprotein); [29]): 32 ×10⁻⁶ cm/s; efflux ratio at 1 h, 10 µM (MDR1 (P-glycoprotein)): 0.81
Cc1cc2c(c(C)c1Cl)N(CC(=O)OC(C)C)C(=O)CO2 [1c]																					In brain ([2]; 60 min): ≤ LLoQ
COC(=O)CN1C(=O)COc2cc(C)c(Cl)c(C)c21 [1a]																					In blood ([2]; 5 min, listed as prodrug 1a, 1 mg/kg): ≤ LLoQ
Oc1ccc(-c2csc3nc(-c4ccccc4)nn23)c(O)c1 [compound 3, 4-(2-phenyl[1,2,4]triazolo[5,1-b][1,3]thiazol-6-yl)benzene-1,3-diol]	49 µL/min/mg microsome protein	0.983 h	0.8 h	1.15 h	2.7 ×10⁻⁶ cm/s	3.9 ×10⁻⁶ cm/s	2.7 ×10⁻⁶ cm/s	3.2 ×10⁻⁶ cm/s	3.3 ×10⁻⁶ cm/s	2.95 ×10⁻⁶ cm/s	15%	15%	15%	49%	50%	48%	0.89	3.25 ×10⁻⁶ cm/s	4.95 ×10⁻⁶ cm/s	18%	recovery at 1 h, 10 µM (MDR1 (P-glycoprotein); [21]): 15%; recovery at 1 h, 10 µM (MDR1 (P-glycoprotein); [22]): 21%; recovery at 1 h, 10 µM (MDR1 (P-glycoprotein); [23]): 49.5%; recovery at 1 h, 10 µM (MDR1 (P-glycoprotein); [24]): 51%; recovery at 1 h, 10 µM (MDR1 (P-glycoprotein); [25]): 48%; Papp A→B at 1 h, 10 µM (MDR1 (P-glycoprotein); [26]): 2.9 ×10⁻⁶ cm/s; Papp A→B at 1 h, 10 µM (MDR1 (P-glycoprotein); [27]): 3.6 ×10⁻⁶ cm/s; Papp B→A at 1 h, 10 µM (MDR1 (P-glycoprotein); [28]): 4.9 ×10⁻⁶ cm/s; Papp B→A at 1 h, 10 µM (MDR1 (P-glycoprotein); [29]): 5 ×10⁻⁶ cm/s; efflux ratio at 1 h, 10 µM (MDR1 (P-glycoprotein)): 1.5
Cc1cc2c(c(C)c1Cl)N(Cc1nn[nH]n1)C(=O)CO2 [1h, 6-chloro-5,7-dimethyl-4-(2H-tetrazol-5-ylmethyl)-1,4-benzoxazin-3-one]																					Blood levels lower than those observed for 1 [2]: ~ 50%; Brain penetrance (in words) [2]: very limited brain penetrance; In blood ([2]; 60 min): ≤ LLoQ; In brain ([2]; 60 min): ≤ LLoQ
Cn1c(C(=O)N[C@@H](C(=O)O)c2ccccc2)cc2cc(F)ccc21 [compound 5, (R)-2-(5-fluoro-1-methyl-1H-indole-2-carboxamido)-2-phenylacetic acid]	< 28 µL/min/mg microsome protein	> 1.67 h	> 1.67 h	> 1.67 h	2.6 ×10⁻⁶ cm/s	2.1 ×10⁻⁶ cm/s	1.6 ×10⁻⁶ cm/s	1.4 ×10⁻⁶ cm/s	2.35 ×10⁻⁶ cm/s	1.5 ×10⁻⁶ cm/s	81%	81%	81%	83.5%	86%	81%	0.62	2.6 ×10⁻⁶ cm/s	2.25 ×10⁻⁶ cm/s	83%	recovery at 1 h, 10 µM (MDR1 (P-glycoprotein); [21]): 87%; recovery at 1 h, 10 µM (MDR1 (P-glycoprotein); [22]): 79%; recovery at 1 h, 10 µM (MDR1 (P-glycoprotein); [23]): 81.5%; recovery at 1 h, 10 µM (MDR1 (P-glycoprotein); [24]): 80%; recovery at 1 h, 10 µM (MDR1 (P-glycoprotein); [25]): 83%; Papp A→B at 1 h, 10 µM (MDR1 (P-glycoprotein); [26]): 2.8 ×10⁻⁶ cm/s; Papp A→B at 1 h, 10 µM (MDR1 (P-glycoprotein); [27]): 2.4 ×10⁻⁶ cm/s; Papp B→A at 1 h, 10 µM (MDR1 (P-glycoprotein); [28]): 2.4 ×10⁻⁶ cm/s; Papp B→A at 1 h, 10 µM (MDR1 (P-glycoprotein); [29]): 2.1 ×10⁻⁶ cm/s; efflux ratio at 1 h, 10 µM (MDR1 (P-glycoprotein)): 0.88
